Experimental data published in patent publication US11118109B2, “Organic luminogens” (THE HONG KONG UNIVERSITY OF SCIENCE AND TECHNOLOGY, priority 2017, dated 2021).

How the values were obtained:
LogP (Table 1) = type: physicochemical
HeLa cells = test: Cell imaging of living HeLa cells by confocal microscopy, co-staining with MitoTracker Green FM and NucRed Live; type: cell-based; settings: incubation 60 min at 37° C.
Procedure: For cell culturing, HeLa cells were cultured in MEM containing 10% FBS and antibiotics (100 units/mL penicillin and 100 µg/mL streptomycin) in a 5% CO2 humidity incubator at 37° C. All culture mediums supplemented with 10% heat-inactivated FBS, 100 units/mL penicillin and 100 µg/mL streptomycin. Before experiment, the cells were precultured until confluence was reached.
For cell imaging, HeLa cells were grown overnight on a 35 mm petri dish with a cover slip at 37° C. After the removal of the medium, the adherent cells were washed twice with 1× phosphate buffered saline (PBS) buffer. 4MOTPO were then added to the chamber. After incubation for 1 h, then washed and incubated with MitoTracker® Green FM and NucRed® Live for 10 min, followed by further washing three times with 1×PBS buffer. The cells were imaged on Zeiss laser scanning confocal microscope and analyzed using ZEN 2009 software.
4MOTPO was tested in living HeLa cells to test the efficacy of the compound as a biosensor for bioimaging. Cells were incubated with 4MOTPO for 60 min at 37° C. and then washed and incubated with MitoTracker® Green FM and NucRed® Live for 10 min, followed by further washing.

Row | logP (LogP (Table 1)) | SMILES | subcellular localisation versus MitoTracker Green FM and NucRed Live (HeLa cells; co-staining 10 min) | fluorescence observed in cells (intracellular distribution) (HeLa cells; confocal microscopy)
1 | 1.29 | COc1ccc(-c2oc(-c3ccccc3)[n+](-c3ccc(OC)cc3)c2-c2ccc(OC)cc2)cc1 [3MOTPO] |  | 
2 | 1.35 | COc1ccc(-c2oc(-c3ccc(OC)cc3)[n+](-c3ccc(OC)cc3)c2-c2ccc(OC)cc2)cc1 [4MOTPO] | can accumulate in mitochondria | intense blue fluorescence was observed in the cellular cytoplasms
3 | 1.02 | COc1ccc(-[n+]2c(-c3ccccc3)oc(-c3ccccc3)c2-c2ccccc2)cc1 [1MOTPO] |  | 
